Measured values reported in PubChem BioAssay AID248 (DTP/NCI, 2004).
“And” between values parts separate entries of the source, which are not always exact repeats. Equal values may be shown once. Toxic doses and inconclusive results are not listed. Rule as the data show it: active = T/C of 150% or more; inactive = T/C below 125%.

Test system: L1210 leukemia ip in BDF1 mice, survival T/C
Test: NCI In Vivo Anticancer Drug Screen. Data for tumor model L1210 Leukemia (intraperitoneal) in B6D2F1 (BDF1) mice
Conditions: endpoint: mean survival time, higher = longer survival
How it was run: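 Each compound was tested against a transplantable tumor grown in mice. The endpoint was survival, with treated animals benchmarked against vehicle controls as a simple ratio.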

[1] = dose: 100.0 mg/kg/injection, schedule: Q04DX003 (ip), vehicle: saline
[2] = dose: 200.0 mg/kg/injection, schedule: Q04DX003 (ip), vehicle: saline
[3] = dose: 400.0 mg/kg/injection, schedule: Q04DX003 (ip), vehicle: saline
[4] = dose: 100.0 mg/kg/injection, schedule: Q04DX002 (ip), vehicle: Klucel (hydroxypropylcellulose) (HPC)
[5] = dose: 200.0 mg/kg/injection, schedule: Q04DX002 (ip), vehicle: Klucel (hydroxypropylcellulose) (HPC)
[6] = dose: 400.0 mg/kg/injection, schedule: Q04DX002 (ip), vehicle: Klucel (hydroxypropylcellulose) (HPC)
[7] = dose: 100.0 mg/kg/injection, schedule: Q04DX002 (ip), vehicle: saline with Tween-80
[8] = dose: 200.0 mg/kg/injection, schedule: Q04DX002 (ip), vehicle: saline with Tween-80
[9] = dose: 100.0 mg/kg/injection, schedule: Q01DX001 (ip), vehicle: saline
[10] = dose: 200.0 mg/kg/injection, schedule: Q01DX001 (ip), vehicle: saline
[11] = dose: 400.0 mg/kg/injection, schedule: Q01DX001 (ip), vehicle: saline
[12] = dose: 100.0 mg/kg/injection, schedule: Q01DX009 (ip), vehicle: Klucel (hydroxypropylcellulose) (HPC)
[13] = dose: 100.0 mg/kg/injection, schedule: Q04DX003 (ip), vehicle: Klucel (hydroxypropylcellulose) (HPC)
[14] = dose: 200.0 mg/kg/injection, schedule: Q04DX003 (ip), vehicle: Klucel (hydroxypropylcellulose) (HPC)
[15] = dose: 400.0 mg/kg/injection, schedule: Q04DX003 (ip), vehicle: Klucel (hydroxypropylcellulose) (HPC)
[16] = dose: 50.0 mg/kg/injection, schedule: Q01DX001 (ip), vehicle: saline

Measured: T/C

Nc1ccc(OCC(=O)N2CCOCC2)c(Cl)c1
inactive: dose: 100.0 mg/kg/injection, schedule: Q01DX009 (ip), vehicle: saline 100 % of control | [1] 110 % of control | dose: 200.0 mg/kg/injection, schedule: Q01DX009 (ip), vehicle: saline 102 % of control | [2] 98 % of control | dose: 400.0 mg/kg/injection, schedule: Q01DX009 (ip), vehicle: saline 96 % of control | [3] 101 % of control

ClC12c3ccccc3C(c3ccccc31)C1(Cl)c3ccccc3C2c2ccccc21
inactive: [4] 102 % of control | [5] 109 % of control | [6] 106 % of control

O=C(N/N=C/c1ccc(Cl)cc1Cl)C(O)C(O)C(O)C(O)CO (stereo not given)
inactive: dose: 12.5 mg/kg/injection, schedule: Q04DX003 (ip), vehicle: saline with Tween-80 105 % of control | dose: 25.0 mg/kg/injection, schedule: Q04DX003 (ip), vehicle: saline with Tween-80 101 % of control | dose: 50.0 mg/kg/injection, schedule: Q01DX001 (ip), vehicle: saline with Tween-80 91 % of control | dose: 50.0 mg/kg/injection, schedule: Q01DX009 (ip), vehicle: saline with Tween-80 90 % of control | dose: 50.0 mg/kg/injection, schedule: Q04DX003 (ip), vehicle: saline with Tween-80 96 % of control and 92 % of control | dose: 100.0 mg/kg/injection, schedule: Q01DX001 (ip), vehicle: saline with Tween-80 104 % of control | [7] 92 % of control | dose: 200.0 mg/kg/injection, schedule: Q01DX001 (ip), vehicle: saline with Tween-80 90 % of control | [8] 86 % of control | dose: 400.0 mg/kg/injection, schedule: Q04DX002 (ip), vehicle: saline with Tween-80 97 % of control

CC(=O)Nc1cccc(OCCOc2cccc([N+](=O)[O-])c2)c1
inactive: [9] 100 % of control | [10] 101 % of control | [11] 101 % of control

Oc1ccccc1/C=N/C(O)C(Cl)(Cl)Cl (stereo not given)
inactive: [4] 96 % of control | [5] 114 % of control | [6] 107 % of control

FC(Cl)(Cl)c1nc2nc(Cl)c(Cl)nc2[nH]1
inactive: dose: 25.0 mg/kg/injection, schedule: Q01DX009 (ip), vehicle: water 95 % of control | dose: 50.0 mg/kg/injection, schedule: Q01DX009 (ip), vehicle: water 94 % of control | dose: 100.0 mg/kg/injection, schedule: Q01DX009 (ip), vehicle: water 97 % of control

CCCC(=O)NC1CC(OC2CC(O)(C(C)=O)Cc3c(O)c4c(c(O)c32)C(=O)c2c(OC)cccc2C4=O)OC(C)C1O (stereo not given)
inactive: dose: 0.25 mg/kg/injection, schedule: Q01DX009 (ip), vehicle: saline 91 % of control | dose: 0.5 mg/kg/injection, schedule: Q01DX009 (ip), vehicle: saline 96 % of control | dose: 1.0 mg/kg/injection, schedule: Q01DX009 (ip), vehicle: saline 91 % of control | dose: 2.0 mg/kg/injection, schedule: Q01DX009 (ip), vehicle: saline 93 % of control | dose: 4.0 mg/kg/injection, schedule: Q01DX009 (ip), vehicle: saline 96 % of control

O=C(O)CNc1nc(Cl)nc(NCC(=O)O)n1
inactive: dose: 50.0 mg/kg/injection, schedule: Q01DX009 (ip), vehicle: Klucel (hydroxypropylcellulose) (HPC) 106 % of control | [12] 89 % of control

CCCNC(c1ccc(C=NC(CC)(CO)CO)cc1)C(Cl)(Cl)Cl (stereo not given)
inactive: [9] 89 % of control | [10] 92 % of control | [11] 97 % of control

C=CC1CNCCC1CC(=O)OCC (stereo not given)
inactive: dose: 50.0 mg/kg/injection, schedule: Q04DX003 (ip), vehicle: saline 97 % of control | [9] 95 % of control | [1] 95 % of control | [10] 91 % of control | [2] 111 % of control

N#CCCN(NC(=O)OCc1ccccc1)C(=O)OCc1ccccc1
inactive: dose: 100.0 mg/kg/injection, schedule: Q01DX001 (ip), vehicle: carboxymethylcellulose (CMC) 95 % of control | dose: 200.0 mg/kg/injection, schedule: Q01DX001 (ip), vehicle: carboxymethylcellulose (CMC) 89 % of control | dose: 400.0 mg/kg/injection, schedule: Q01DX001 (ip), vehicle: carboxymethylcellulose (CMC) 95 % of control

O=[N+]([O-])c1cccc(C=Nc2ccc(Cl)cc2Cl)c1
inactive: dose: 100.0 mg/kg/injection, schedule: Q01DX001 (ip), vehicle: Klucel (hydroxypropylcellulose) (HPC) 92 % of control | [13] 102 % of control | dose: 200.0 mg/kg/injection, schedule: Q01DX001 (ip), vehicle: Klucel (hydroxypropylcellulose) (HPC) 91 % of control | [14] 98 % of control | dose: 400.0 mg/kg/injection, schedule: Q01DX001 (ip), vehicle: Klucel (hydroxypropylcellulose) (HPC) 91 % of control | [15] 89 % of control

O=c1[nH]c2ccsc2c(=O)n1OS(=O)(=O)c1ccccc1
inactive: [12] 100 % of control | dose: 200.0 mg/kg/injection, schedule: Q01DX009 (ip), vehicle: Klucel (hydroxypropylcellulose) (HPC) 100 % of control | dose: 400.0 mg/kg/injection, schedule: Q01DX009 (ip), vehicle: Klucel (hydroxypropylcellulose) (HPC) 88 % of control

Brc1ccc2c(ccn2Cc2ccccc2)c1
inactive: dose: 100.0 mg/kg/injection, schedule: Q04DX003 (sc), vehicle: olive oil, sesame oil, peanut oil 109 % of control | dose: 200.0 mg/kg/injection, schedule: Q04DX003 (sc), vehicle: olive oil, sesame oil, peanut oil 106 % of control | dose: 400.0 mg/kg/injection, schedule: Q04DX003 (sc), vehicle: olive oil, sesame oil, peanut oil 104 % of control

O=S1(=O)C=C(Br)CC1
inactive: dose: 75.0 mg/kg/injection, schedule: Q01DX001 (ip), vehicle: saline with Tween-80 97 % of control | dose: 150.0 mg/kg/injection, schedule: Q01DX001 (ip), vehicle: saline with Tween-80 97 % of control | dose: 300.0 mg/kg/injection, schedule: Q01DX001 (ip), vehicle: saline with Tween-80 95 % of control

CCC1(C)N=C(N)N=C(N)N1c1ccc(Cl)c(Cl)c1 (stereo not given)
inactive: dose: 37.5 mg/kg/injection, schedule: Q04DX003 (ip), vehicle: saline 111 % of control | dose: 75.0 mg/kg/injection, schedule: Q01DX001 (ip), vehicle: saline 103 % of control | dose: 75.0 mg/kg/injection, schedule: Q04DX003 (ip), vehicle: saline 111 % of control | dose: 150.0 mg/kg/injection, schedule: Q01DX001 (ip), vehicle: saline 101 % of control | dose: 150.0 mg/kg/injection, schedule: Q04DX003 (ip), vehicle: saline 105 % of control

CCSC(SCC)C(NC(C)=O)C1OC(C)(C)OC1C(O)CO (stereo not given)
inactive: [16] 97 % of control | [9] 103 % of control | [10] 103 % of control | [11] 103 % of control

CCCCCC(CN(C)C)C(=O)/C=C/c1c(Cl)cccc1Cl (stereo not given)
inactive: dose: 25.0 mg/kg/injection, schedule: Q01DX009 (ip), vehicle: Klucel (hydroxypropylcellulose) (HPC) 106 % of control

CC1CN(CCCCO)C(=O)NC1=O (stereo not given)
inactive: [9] 90 % of control | [10] 88 % of control

O=C1NC(c2ccc3ccccc3c2)Nc2ccccc21 (stereo not given)
inactive: [13] 103 % of control | [14] 107 % of control | [15] 105 % of control

N#CCC1(O)c2ccccc2-c2ccccc21
inactive: [16] 98 % of control | [9] 98 % of control | [10] 102 % of control | [11] 96 % of control

NCCc1cc(O)c(O)c(S(=O)(=O)c2ccc(N)cc2)c1
inactive: dose: 75.0 mg/kg/injection, schedule: Q01DX009 (ip), vehicle: saline 107 % of control | dose: 150.0 mg/kg/injection, schedule: Q01DX009 (ip), vehicle: saline 105 % of control

Nc1nc(N)c(N=Nc2ccccc2S(=O)(=O)O)c(N)n1
inactive: [9] 105 % of control | [10] 89 % of control | [11] 96 % of control

CC(O)C(C)(C)C(O)C(=O)NCCSc1ccc(Cl)cc1 (stereo not given)
inactive: dose: 100.0 mg/kg/injection, schedule: Q01DX001 (ip), vehicle: acetone 104 % of control | dose: 200.0 mg/kg/injection, schedule: Q01DX001 (ip), vehicle: acetone 104 % of control | dose: 400.0 mg/kg/injection, schedule: Q01DX001 (ip), vehicle: acetone 102 % of control

O=C1C=CC(=O)c2c1ccc1c2[nH]c2ccccc21
inactive: [7] 113 % of control | [8] 90 % of control

C(#CCN1CCOCC1)CCCN1CCOCC1
inactive: [1] 96 % of control | [2] 95 % of control | [3] 93 % of control

Clc1nc(Cl)c2c(ncn2Cc2ccccc2)n1
inactive: dose: 100.0 mg/kg/injection, schedule: Q01DX001 (ip), vehicle: other 95 % of control | dose: 200.0 mg/kg/injection, schedule: Q01DX001 (ip), vehicle: other 104 % of control
